Experimental data from patent publication US7728012B2, “Carboxamide compounds and their use as calpain inhibitors” (Abbott GmbH & Co. KG, priority 2006, dated 2010).

Tests used:
Assay type in all cases: biochemical
[1] = biological target: T1, calpain-I isolated from human erythrocytes (Homo sapiens, UniProt P07384); assay: Calpain I kinetic fluorescence enzyme inhibition assay; details: apparent Ki from IC50 by Cheng-Prussoff; average of 2 to 4 dose-effect plots
T1 construct: calpain-I—isolated from human erythrocytes; purchased Calbiochem 208713; host or cells: human erythrocytes (tissue isolate)
T1 sequence (P07384 1-714): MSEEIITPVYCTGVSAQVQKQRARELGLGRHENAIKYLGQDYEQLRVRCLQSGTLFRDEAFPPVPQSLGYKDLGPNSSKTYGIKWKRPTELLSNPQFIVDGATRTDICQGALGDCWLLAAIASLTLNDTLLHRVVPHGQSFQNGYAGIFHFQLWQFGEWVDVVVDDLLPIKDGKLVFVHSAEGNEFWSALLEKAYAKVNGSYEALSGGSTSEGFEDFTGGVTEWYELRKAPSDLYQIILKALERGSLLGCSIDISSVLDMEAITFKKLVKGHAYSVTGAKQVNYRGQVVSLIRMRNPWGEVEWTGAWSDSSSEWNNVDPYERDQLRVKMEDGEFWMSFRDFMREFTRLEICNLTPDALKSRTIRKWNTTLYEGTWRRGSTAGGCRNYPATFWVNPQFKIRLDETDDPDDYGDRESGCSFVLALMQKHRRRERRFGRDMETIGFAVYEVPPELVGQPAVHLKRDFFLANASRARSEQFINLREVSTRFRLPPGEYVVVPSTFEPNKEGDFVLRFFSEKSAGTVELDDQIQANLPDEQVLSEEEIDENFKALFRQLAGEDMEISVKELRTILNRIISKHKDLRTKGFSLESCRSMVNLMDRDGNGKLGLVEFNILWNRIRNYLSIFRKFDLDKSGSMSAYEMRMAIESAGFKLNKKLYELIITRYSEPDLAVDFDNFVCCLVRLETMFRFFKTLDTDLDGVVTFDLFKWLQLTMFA
T1 sequence (P04632 1-268 partner): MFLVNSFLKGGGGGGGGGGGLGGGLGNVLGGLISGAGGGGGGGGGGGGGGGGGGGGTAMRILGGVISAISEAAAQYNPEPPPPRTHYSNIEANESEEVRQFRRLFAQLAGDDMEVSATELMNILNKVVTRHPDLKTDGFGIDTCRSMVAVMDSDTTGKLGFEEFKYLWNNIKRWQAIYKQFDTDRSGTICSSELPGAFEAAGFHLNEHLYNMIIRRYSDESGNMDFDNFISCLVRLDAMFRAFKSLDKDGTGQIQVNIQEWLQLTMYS

[2] = biological target: T2, cathepsin B isolated from human liver (Homo sapiens, UniProt P07858); assay: Cathepsin B kinetic fluorescence enzyme inhibition assay; details: selectivity ratio versus calpain I
T2 construct: cathepsin B—isolated from human liver; purchased Calbiochem 219362; host or cells: human liver (tissue isolate)
Protocol: (§1) The following solutions and buffers were employed: • HBS (for 40 ml): 800 μl M HEPES; 2.16 ml 100 mM KCl; 4.8 ml 1M NaCl; 3.59 ml 5% glucose; 60 μl μM MgSO4; 400 μl 100 mM Na pyruvate, 28.19 ml water; pH 7.2-7.5. • lysis buffer (for 20 ml): 400 μl M Tris pH 8.2; 2.74 ml 1M NaCl; 520 μl 0.5M EDTA; 2 ml 10% triton X-100; 0.8 ml (=1:25) CompletePlus (1 tablet/2 ml H2O); 200 μl 100 mM Pefabloc; 13.34 ml water, pH 8.2. • TBST (10×) (for 1 l): 100 mM Tris (12.1 g); 1.5M NaCl (87 g); 1% Tween 20 (10 g), adjusted to pH 8. I Enzyme Inhibition In Vitro: • Testing for blockade of the corresponding enzymic activities was carried out by means of kinetic fluorescence assays (excitation 390 nm, emission 460 nm). • Apparent Ki values were calculated from the experimentally determined IC50 values by the Cheng-Prussoff relation assuming a reversible competitive enzyme inhibition. The Km values of the substrates used under the assay conditions indicated above were: 90 μM (Z-Phe-Arg-AMC, cathepsin B), 10 μM (Z-Gly-Pro-Arg-AMC, cathepsin K), 2 μM (Z-Phe-Arg-AMC, cathepsin L), and 30 μM (Z-Val-Val-Arg-AMC, cathepsin S). • The indicated Ki values are averages of the inhibition constants calculated on the basis of 2 to 4 independent dose-effect plots.
(§2) The following assays were used: • 1. Calpain I: • 20 nM calpain-I—isolated from human erythrocytes (Calbiochem #208713), 100 μM Suc-Leu-Tyr-AMC (Bachem #1-1355) as substrate in buffer with 62 mM imidazole, 0.3 mM CaCl2, 0.10% CHAPS, 0.05% BSA, 1 mM DTT at pH 7.3 and room temperature. • 2. Cathepsin B: • 0.25 nM cathepsin B—isolated from human liver (Calbiochem #219362), 100 μM Z-Phe-Arg-AMC (Bachem #I-1160) as substrate 50 mM MES, 2 mM EDTA, 0.05% Brij 35, 2.5 mM L-cysteine, pH 6.0, room temperature. • 3. Cathepsin K: • 3 nM cathepsin K—activated from recombinant human procathepsin K from E. coli (Calbiochem #342001), 10 μM Z-Gly-Pro-Arg-AMC (Biomol #P-142) as substrate in 50 mM MES, 2 mM EDTA, 0.05% Brij 35, 2.5 mM L-cysteine, pH 6.0, room temperature. • 4. Cathepsin L: • 1 nM cathepsin L—isolated from human liver (Calbiochem #219402), 2 μM Z-Phe-Arg-AMC (Bachem #1-1160) as substrate in 50 mM MES, 2 mM EDTA, 0.05% Brij 35, 2.5 mM L-cysteine, pH 6.0, room temperature. • 5. Cathepsin S: • 0.5 nM recombinant human cathepsin S from E. coli (Calbiochem #219343), 20 μM Z-Val-Val-Arg-AMC (Bachem #1-1540) as substrate in 50 mM MES, 2 mM EDTA, 0.05% Brij 35, 2.5 mM L-cysteine, pH 6.0, room temperature. • The results of the in vitro determination are indicated in Table 1. The following abbreviations are used in Table 1: • The “Calpain activity” column, ++ stands for a calpain Ki (Ki(calpain)) of ≦40 nM and + means: 40 nM<Ki(Calpain)≦100 nM. • The “Sel. cat. B” column indicates the Ki(cathepsin B)/Ki(calpain) ratio. In this connection, ++ means a Ki(cathepsin B)/Ki(calpain) ratio of ≧30 and + means 10≦Ki(cathepsin B)/Ki(calpain)<30. • The “Sel. cat. K” column indicates the Ki(cathepsin K)/Ki(calpain) ratio. In this connection, ++ means a Ki(cathepsin K)/Ki(calpain) ratio of ≧30 and + means 10≦Ki(cathepsin K)/Ki(calpain)<30. • The “Sel. cat. L” column indicates the Ki(cathepsin L)/Ki(calpain) ratio. In this connection, ++ means a Ki(cathepsin L)/Ki(calpain) ratio of ≧50 and + means 30≦Ki(cathepsin L)/Ki(calpain)<50. • The “Sel. cat. S” column indicates the Ki(cathepsin S)/Ki(calpain) ratio. In this connection, ++ means a Ki(cathepsin S)/Ki(calpain) ratio of ≧100 and + means 50≦Ki(cathepsin S)/Ki(calpain)<100.

[3] = biological target: T3, recombinant human cathepsin S (Homo sapiens, UniProt P25774); assay: Cathepsin S kinetic fluorescence enzyme inhibition assay; details: selectivity ratio versus calpain I
T3 construct: purchased Calbiochem 219343; host or cells: E. coli
In short: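 Kinetic fluorescence (ex 390/em 460 nm) at room temperature in 50 mM MES, 2 mM EDTA, 0.05% Brij 35, 2.5 mM L-cysteine, pH 6.0. Cathepsin B (liver, 0.25 nM) with 100 μM Z-Phe-Arg-AMC; cathepsin L (liver, 1 nM) with 2 μM Z-Phe-Arg-AMC; recombinant E. coli cathepsin S (0.5 nM) with 20 μM Z-Val-Val-Arg-AMC. Ki via Cheng-Prusoff.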

[4] = biological target: T4, cathepsin L isolated from human liver (Homo sapiens, UniProt P07711); assay: Cathepsin L kinetic fluorescence enzyme inhibition assay; details: selectivity ratio versus calpain I
T4 construct: cathepsin L—isolated from human liver; purchased Calbiochem 219402; host or cells: human liver (tissue isolate)
Protocol: as §1, §2

T4 sequence (P07711 114-333): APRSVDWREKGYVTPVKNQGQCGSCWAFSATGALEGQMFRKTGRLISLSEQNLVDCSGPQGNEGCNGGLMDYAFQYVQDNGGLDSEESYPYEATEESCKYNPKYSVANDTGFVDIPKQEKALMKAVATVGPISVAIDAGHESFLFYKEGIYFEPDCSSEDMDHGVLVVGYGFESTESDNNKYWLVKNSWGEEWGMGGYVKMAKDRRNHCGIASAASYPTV
T3 sequence (P25774 115-331): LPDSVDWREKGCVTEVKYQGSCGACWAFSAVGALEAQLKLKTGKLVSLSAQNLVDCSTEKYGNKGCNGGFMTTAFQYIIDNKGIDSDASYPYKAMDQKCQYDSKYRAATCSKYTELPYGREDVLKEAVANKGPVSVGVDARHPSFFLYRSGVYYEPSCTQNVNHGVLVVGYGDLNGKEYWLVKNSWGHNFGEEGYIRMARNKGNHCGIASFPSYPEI

Row | Ki [1] | Sel cat. B (Ki(cathepsin B)/Ki(calpain) ratio) [2] | Structure (SMILES) | Sel cat. S (Ki(cathepsin S)/Ki(calpain) ratio) [3] | Sel cat. L (Ki(cathepsin L)/Ki(calpain) ratio) [4]
1 | ≤ 40 nM | – | NC(=O)C(=O)C(Cc1ccccc1)NC(=O)c1ccccc1-n1ccc(-c2ccccc2)n1 (stereo not drawn) [Example 106, N-[3-Amino-2,3-dioxo-1-(phenylmethyl)propyl]-2-(3-phenyl-1H-pyrazol-1-yl)benzamide] | ++ (Ki(cathepsin S)/Ki(calpain) ratio of ≧100) | + (30≦Ki(cathepsin L)/Ki(calpain)<50)
2 | 40 to 100 nM | – | NC(=O)C(=O)C(Cc1ccccc1)NC(=O)c1cccnc1-n1cc2c(n1)-c1ccccc1OCC2 (stereo not drawn) [Example 141, N-[3-Amino-2,3-dioxo-1-(phenylmethyl)propyl]-2-(4,5-dihydro-2H-[1]benzoxepino[5,4-c]pyrazol-2-yl)pyridine-3-carboxamide] | ++ (Ki(cathepsin S)/Ki(calpain) ratio of ≧100) | ++ (Ki(cathepsin L)/Ki(calpain) ratio of ≧50)
3 | – | + (10≦Ki(cathepsin B)/Ki(calpain)<30) | NC(=O)C(=O)C(Cc1ccccc1)NC(=O)c1cccnc1-n1ccc(-c2cccc3cnccc23)n1 (stereo not drawn) [Example 156, N-[3-Amino-2,3-dioxo-1-(phenylmethyl)propyl]-2-(3-isoquinolin-5-yl-1H-pyrazol-1-yl)pyridine-3-carboxamide] | ++ (Ki(cathepsin S)/Ki(calpain) ratio of ≧100) | + (30≦Ki(cathepsin L)/Ki(calpain)<50)
4 | 40 to 100 nM | – | CS(=O)(=O)NCc1cn(-c2ncccc2C(=O)NC(Cc2ccccc2)C(=O)C(N)=O)nc1-c1ccc(F)cc1 (stereo not drawn) [Example 187, N-[3-Amino-2,3-dioxo-1-(phenylmethyl)propyl]-2-[3-(4-fluorophenyl)-4-{[(methylsulfonyl)amino]methyl}-1H-pyrazol-1-yl]pyridine-3-carboxamide] | ++ (Ki(cathepsin S)/Ki(calpain) ratio of ≧100) | + (30≦Ki(cathepsin L)/Ki(calpain)<50)

More lines, now with the values behind:

Row | Structure (SMILES) | Ki [1] | Sel cat. B (Ki(cathepsin B)/Ki(calpain) ratio) [2] | Sel cat. S (Ki(cathepsin S)/Ki(calpain) ratio) [3] | Sel cat. L (Ki(cathepsin L)/Ki(calpain) ratio) [4]
5 | CCCCC(NC(=O)c1cc(Cl)cnc1-n1ccc(-c2ccccc2)n1)C(=O)C(N)=O (stereo not drawn) [Example 28, N-{1-[Amino(oxo)acetyl]pentyl}-5-chloro-2-(3-phenyl-1H-pyrazol-1-yl)nicotinamide] | ≤ 40 nM | + (10≦Ki(cathepsin B)/Ki(calpain)<30) | – | –
6 | CC(C)CC(NC(=O)c1cc(Cl)cnc1-n1ccc(-c2ccccc2)n1)C(=O)C(N)=O (stereo not drawn) [Example 32, N-{1-[Amino(oxo)acetyl]-3-methylbutyl}-5-chloro-2-(3-phenyl-1H-pyrazol-1-yl)nicotinamide] | ≤ 40 nM | + (10≦Ki(cathepsin B)/Ki(calpain)<30) | – | –
7 | CCCCC(NC(=O)c1cccnc1-n1ccc(-c2ccc(N3CCOCC3)cc2)n1)C(=O)C(N)=O (stereo not drawn) [Example 33, N-{1-[Amino(oxo)acetyl]pentyl}-2-[3-(4-morpholin-4-ylphenyl)-1H-pyrazol-1-yl]nicotinamide] | ≤ 40 nM | + (10≦Ki(cathepsin B)/Ki(calpain)<30) | + (50≦Ki(cathepsin S)/Ki(calpain)<100) | –
8 | Cc1cc(-c2ccccc2)nn1-c1ncccc1C(=O)NC(Cc1ccccc1)C(=O)C(N)=O (stereo not drawn) [Example 61, N-(3-Amino-1-benzyl-2,3-dioxopropyl)-2-(5-methyl-3-phenyl-1H-pyrazol-1-yl)nicotinamide] | – | + (10≦Ki(cathepsin B)/Ki(calpain)<30) | ++ (Ki(cathepsin S)/Ki(calpain) ratio of ≧100) | –
9 | N#Cc1ccc(-c2ccn(-c3ncccc3C(=O)NC(Cc3ccccc3)C(=O)C(N)=O)n2)cc1 (stereo not drawn) [Example 62, N-(3-Amino-1-benzyl-2,3-dioxopropyl)-2-[3-(4-cyanophenyl)-1H-pyrazol-1-yl]nicotinamide] | 40 to 100 nM | – | ++ (Ki(cathepsin S)/Ki(calpain) ratio of ≧100) | ++ (Ki(cathepsin L)/Ki(calpain) ratio of ≧50)
10 | NC(=O)C(=O)C(Cc1ccccc1)NC(=O)c1cccnc1-n1ccc(-c2ccc(N3CCCCC3)cc2)n1 (stereo not drawn) [Example 64, N-(3-Amino-1-benzyl-2,3-dioxopropyl)-2-[3-(4-piperidin-1-ylphenyl)-1H-pyrazol-1-yl]nicotinamide] | ≤ 40 nM | + (10≦Ki(cathepsin B)/Ki(calpain)<30) | ++ (Ki(cathepsin S)/Ki(calpain) ratio of ≧100) | –
11 | NC(=O)C(=O)C(Cc1ccccc1)NC(=O)c1cccnc1-n1cc2ccccc2n1 (stereo not drawn) [Example 78, N-(3-Amino-1-benzyl-2,3-dioxopropyl)-2-(2H-indazol-2-yl)nicotinamide] | 40 to 100 nM | – | + (50≦Ki(cathepsin S)/Ki(calpain)<100) | ++ (Ki(cathepsin L)/Ki(calpain) ratio of ≧50)
